We go through one molecule from article PMC8329121 (Journal of Neuroimmune Pharmacology, 2021).

The structures appear in SMILES notation.

For experiment [1], the target named is T1, E2C-I159C hDAT (C90A/C306A/I159C) (Homo sapiens, UniProt Q01959, C306A/C90A/I159C).
T1 construct: expressed in transfected cells; host or cells: HEK293 cells, transient, pcDNA3.1+
T1 sequence (Q01959 1-620 C90A/I159C/C306A): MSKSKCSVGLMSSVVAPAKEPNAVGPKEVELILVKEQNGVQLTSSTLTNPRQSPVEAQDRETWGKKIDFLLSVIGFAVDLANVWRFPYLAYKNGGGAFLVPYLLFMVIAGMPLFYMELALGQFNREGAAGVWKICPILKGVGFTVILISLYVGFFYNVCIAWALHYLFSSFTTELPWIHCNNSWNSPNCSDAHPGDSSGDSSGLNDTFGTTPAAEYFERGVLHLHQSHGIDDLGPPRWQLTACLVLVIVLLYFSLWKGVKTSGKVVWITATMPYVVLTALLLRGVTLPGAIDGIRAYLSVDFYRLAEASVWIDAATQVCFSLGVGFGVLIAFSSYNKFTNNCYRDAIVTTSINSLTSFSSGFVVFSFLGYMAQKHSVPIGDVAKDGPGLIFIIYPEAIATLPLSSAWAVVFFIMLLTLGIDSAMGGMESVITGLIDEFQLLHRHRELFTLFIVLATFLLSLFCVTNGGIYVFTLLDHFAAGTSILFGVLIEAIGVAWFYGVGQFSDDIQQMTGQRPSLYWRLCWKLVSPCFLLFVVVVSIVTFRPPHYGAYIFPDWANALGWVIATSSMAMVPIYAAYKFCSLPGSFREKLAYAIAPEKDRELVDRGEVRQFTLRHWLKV
Further details: method as in Loland et al. [2004], [2008]. Conditions: 0.5 mM MTSET for 10 min; ref Loland et al. [2004], [2008]; cited from earlier work.

Experiment [2] deals with T1, E2C-I159C hDAT (C90A/C306A/I159C). The experiment in a line: MTSET assay, [3H]DA uptake in HEK293 cells. Format: cell-based. The text has this:
All mutants on hDAT were generated based on the predictions made using our computational model, as described previously using site-directed mutagenesis based on the wild-type hDAT (WT hDAT) sequence (NCBI, cDNA clone MGC: 164,608 IMAGE: 40,146,999) (Quizon et al. [2016]). The combination of hDAT mutations on Asp206 and His547 (Aspartic acid 206 to leucine and histidine 547 to alanine, D206L/H547A) were predicted to eliminate two hydrogen bonds between Tat and hDAT. In addition, the combination of mutations on Tyr88, Asp206, and His547 (tyrosine88 to phenylalanine and aspartic acid 206 to leucine and histidine 547 to alanine, Y88F/D206L/H547A) were predicted to eliminate three hydrogen bonds from the Tat-hDAT complex. Two extracellular cysteine90 and cysteine306 residues on WT hDAT were mutated to alanine as E2C hDAT (C90A/C306A hDAT), rendering the E2C hDAT MTSET-insensitive background (Pedersen et al. [2014]). A triple mutation of the two cysteine90 and 306 residues to alanine and […] to cysteine on WT hDAT was generated as E2C-I159C hDAT (C90A/C306A/I159C) for MTSET-sensitive construct. A combination of C90A/C306A/H547A was generated as E2C/H547A hDAT for MTSET-insensitive control for H547A. To determine whether H547A-enhanced DA transport is mediated by changing transporter conformation, two combinations of C90A/C306A/I159C/H547A and C90A/C306A/I159A/H547A were generated as E2C-I159C/H547A and E2C-I159A/H547A for positive and negative controls for MTSET sensitive background, respectively. Synthetic cDNA encoding hDAT subcloned into pcDNA3.1+ (provided by Dr. Haley E Melikian, University of Massachusetts) was used as a template to generate mutants using site-directed mutagenesis performed by GENEWIZ (South Plainfield, NJ). DNA sequencing was also performed by GENEWIZ to confirm the sequences of the mutant constructs. Plasmid DNA were propagated and purified using the Qiagen Hi-speed maxi prep plasmid DNA isolation kit (Qiagen, Valencia, CA, USA).
This assay was performed based on the previous report with minor modifications (Loland et al. [2004], [2008]). First, we generated five WT hDAT based plasmid construct for MTSET-insensitive or sensitive background as we described above. HEK293 cells were grown in poly-d-lysine coated plates at a density of 1 × 10^5 cells/cm^2 were transfected with different E2C- associated hDAT background constructs: E2C hDAT, E2C-I159C hDAT, E2C/H547A hDAT, E2C-I159C/H547A or E2C-I159A/H547A. Twenty-four hours after the transfection, cells were washed twice with 1× KRH buffer, and preincubated with or without the presence of 10 µM nomifensine (for non-specific uptake) and MTSET for 10 min at room temperature. MTSET at 1 mM final concentration was chosen based on a pilot study on optimizing MTSET concentrations (0.1, 0.5 or 1.0 mM). […] Because MTSET is easily hydrolyzed in solution, the amount needed for a 10 × stock was weighed out and dissolved in 1 × KRH buffer just right before adding to the assigned wells, for a 10-fold dilution (final concentration of 1 mM in final volume of 250 µl). […] Cells were immediately washed twice with ice-cold 1 × KRH buffer to terminate the reaction and were lysed rapidly with the addition of 1 % SDS. Cell lysates were collected after incubation for 1 h at room temperature and radioactivity was determined the next day.

Consider `C[N+](C)(C)CCSS(C)(=O)=O` [MTSET, [2-(trimethylammonium)ethyl]-methanethiosulfonate], for which the “inhibition on E2C-I159C” value in experiment [1] is 40%. For the same molecule, the “inhibition of [3H]DA uptake relative to no MTSET addition” value in experiment [2] (1 mM MTSET, 10 min, HEK293, pilot study Fig. 8a) turned out to be 55%. Further, the “[3H]DA uptake in the presence of MTSET” value in experiment [2] (1 mM MTSET, HEK293, Fig. 8b) is 46.0 ± 6.0. Further, the “effect on [3H]DA uptake” value in experiment [2] (MTSET 0.1, 0.5, 1.0 mM, pilot study Fig. 8a) is given as “concentration-dependently inhibited”.
